Test results from US5004747A, “Isoquinolinones” (May & Baker Limited, priority 1988, dated 1991).

Target: T1, rat hepatic microsomal HMG CoA reductase (Rattus norvegicus, UniProt P51639)
T1 construct: rat hepatic microsomal HMG CoA reductase; from tissue; host or cells: rat liver microsomes
T1 sequence (P51639 1-887): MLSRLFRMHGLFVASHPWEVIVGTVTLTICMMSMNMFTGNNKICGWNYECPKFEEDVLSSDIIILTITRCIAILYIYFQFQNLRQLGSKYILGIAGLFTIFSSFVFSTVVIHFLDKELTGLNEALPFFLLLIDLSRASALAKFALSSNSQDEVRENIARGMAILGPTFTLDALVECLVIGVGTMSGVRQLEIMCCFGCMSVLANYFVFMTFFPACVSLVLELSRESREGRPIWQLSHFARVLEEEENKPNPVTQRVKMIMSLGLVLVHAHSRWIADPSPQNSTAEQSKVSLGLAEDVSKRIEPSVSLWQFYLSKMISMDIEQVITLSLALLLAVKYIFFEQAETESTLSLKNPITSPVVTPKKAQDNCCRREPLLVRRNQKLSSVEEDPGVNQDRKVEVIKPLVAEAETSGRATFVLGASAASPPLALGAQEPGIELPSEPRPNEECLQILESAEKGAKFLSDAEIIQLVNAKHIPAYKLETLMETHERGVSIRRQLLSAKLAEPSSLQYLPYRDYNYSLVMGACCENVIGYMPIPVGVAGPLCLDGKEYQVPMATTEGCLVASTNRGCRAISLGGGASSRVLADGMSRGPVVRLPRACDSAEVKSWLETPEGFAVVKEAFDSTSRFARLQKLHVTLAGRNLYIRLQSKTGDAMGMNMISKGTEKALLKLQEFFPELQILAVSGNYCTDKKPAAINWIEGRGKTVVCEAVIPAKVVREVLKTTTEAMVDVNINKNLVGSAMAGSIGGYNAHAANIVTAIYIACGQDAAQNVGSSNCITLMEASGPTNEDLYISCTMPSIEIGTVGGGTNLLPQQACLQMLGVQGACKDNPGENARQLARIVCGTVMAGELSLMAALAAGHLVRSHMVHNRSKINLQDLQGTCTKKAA
Test: inhibition of rat hepatic microsomal HMG CoA reductase activity in vitro (Table I)
Type: biochemical
Conditions: for inhibition at 0.082 µg/mL: 0.082 micrograms/ml; for inhibition at 0.25 µg/mL: 0.25 micrograms/ml; for inhibition at 0.74 µg/mL: 0.74 micrograms/ml; for inhibition at 2.22 µg/mL: 2.22 micrograms/ml; for inhibition at 6.66 µg/mL: 6.66 micrograms/ml
Source text: In the table the concentrations of the test compounds are expressed in micrograms/ml.

For `O=C1C[C@H](O)C[C@@H](/C=C/c2c(-c3ccc(F)cc3)c3ccccc3c(=O)n2CC2CC2)O1` [X, (4R,6S)-(E)-6-(2-(2-cyclopropylmethyl-4-(4-fluorophenyl)-1-oxo-1,2-dihydroisoquinolin-3-yl)ethen-1-yl)-4-hydroxy-3,4,5,6-tetrahydro-2H-pyran-2-one], the inhibition at 0.082 µg/mL was 16%, the inhibition at 0.25 µg/mL was 35% and the inhibition at 0.74 µg/mL was 61%. The inhibition at 2.22 µg/mL was 83%, the inhibition at 6.66 µg/mL was 92% and the inhibition at 20 µg/mL (20.0 micrograms/ml) was 96%.

`CC(C)c1c(/C=C/[C@@H]2C[C@@H](O)CC(=O)O2)n(C2CCCCC2)c(=O)c2ccccc12` [Z, (4R,6S)-(E)-6-(2-(2-cyclohexyl-4-isopropyl-1-oxo-1,2-dihydroisoquinolin-3-yl)ethen-1-yl)-4-hydroxy-3,4,5,6-tetrahydro-2H-pyran-2-one] showed an inhibition at 0.082 µg/mL of 50%, an inhibition at 0.25 µg/mL of 77% and an inhibition at 0.74 µg/mL of 88%. It also gave an inhibition at 2.22 µg/mL of 96% and an inhibition at 6.66 µg/mL of 99%.
